Assay results taken from ChEMBL document CHEMBL4823282, “Novel Broad-Spectrum Antimicrobial Peptide Derived from Anoplin and Its Activity on Bacterial Pneumonia in Mice” (J Med Chem, 2021).
Converted amounts (≈) assume the structure as drawn. Where a SMILES comes first, the peptide text is derived from it.

Experiments:
Bacteria [1] = test: Antibacterial activity against bacteria incubated for 18 hrs by CLSI based broth dilution method; format: functional
Erythrocyte = test: Hemolytic activity in BALB/C mouse erythrocytes incubated for 1 hr by absorbance method; format: ADME, cell-based
[2] = system: Staphylococcus epidermidis; test: Antibacterial activity against Staphylococcus epidermidis ATCC 12228 incubated for 18 hrs by CLSI based broth dilution method; format: functional
Acinetobacter baumannii = test: Antibacterial activity against Acinetobacter baumannii ATCC 19606 incubated for 18 hrs by CLSI based broth dilution method; format: functional; details: ATCC 19606 = CIP 70.34 = JCM 6841
[3] = Selectivity ratio of MHC10 for BALB/C mouse erythrocytes to MIC for fungi; format: toxicity
Pseudomonas aeruginosa [4] = test: Synergistic antibacterial activity against Pseudomonas aeruginosa ATCC 27853 at 2 times MIC incubated for 18 to 24 hrs in presence of 2 times MIC of polymyxin B by broth microdilution assay based checkerboard assay; format: functional; details: time 18-24 hrs
Escherichia coli [5] = test: Antibacterial activity against Escherichia coli ATCC 25922 incubated for 18 hrs by CLSI based broth dilution method; format: functional
Enterococcus faecalis = test: Antibacterial activity against Enterococcus faecalis ATCC 29212 incubated for 18 hrs by CLSI based broth dilution method; format: functional
Bacteria [6] = test: Antibacterial activity against Gram-positive bacteria incubated for 18 hrs by CLSI based broth dilution method; format: functional
Pseudomonas aeruginosa [7] = test: Synergistic antibacterial activity against Pseudomonas aeruginosa ATCC 27853 at 2 times MIC incubated for 18 to 24 hrs in presence of 2 times MIC of rifampicin by broth microdilution assay based checkerboard assay; format: functional; details: time 18-24 hrs
[8] = Selectivity ratio of MHC10 for BALB/C mouse erythrocytes to MIC for gram positive bacteria; format: toxicity
Bacteria [9] = test: Antibacterial activity against Gram-negative bacteria incubated for 18 hrs by CLSI based broth dilution method; format: functional
Fungi = test: Antibacterial activity against fungi incubated for 18 hrs by CLSI based broth dilution method; format: functional
[10] = Selectivity ratio of MHC10 for BALB/C mouse erythrocytes to MIC for bacteria; format: toxicity
Staphylococcus aureus [11] = test: Antibacterial activity against Staphylococcus aureus ATCC 25923 incubated for 18 hrs by CLSI based broth dilution method; format: functional
Pseudomonas aeruginosa [12] = test: Antibacterial activity against Pseudomonas aeruginosa ATCC 27853 incubated for 18 hrs by CLSI based broth dilution method; format: functional
Bacillus subtilis = test: Antibacterial activity against Bacillus subtilis ATCC 23857 incubated for 18 hrs by CLSI based broth dilution method; format: functional
[13] = Cytotoxicity against human glomerular mesangial cells incubated for 12 hrs by MTT assay; format: cell-based; details: Glomerular mesangial cell
[14] = Selectivity ratio of MHC10 for BALB/C mouse erythrocytes to MIC for gram-negative bacteria; format: toxicity
Klebsiella pneumoniae [15] = test: Antibacterial activity against Klebsiella pneumoniae ATCC 700603 incubated for 18 hrs by CLSI based broth dilution method; format: functional
Klebsiella pneumoniae [16] = test: Synergistic antibacterial activity against Klebsiella pneumoniae ATCC 700603 at 2 times MIC incubated for 18 to 24 hrs in presence of 2 times MIC of gentamycin by broth microdilution assay based checkerboard assay; format: functional; details: time 18-24 hrs
Escherichia coli [17] = test: Synergistic antibacterial activity against Escherichia coli ATCC 25922 at 2 times MIC incubated for 18 to 24 hrs in presence of 2 times MIC of gentamycin by broth microdilution assay based checkerboard assay; format: functional; details: time 18-24 hrs
Klebsiella pneumoniae [18] = test: Synergistic antibacterial activity against Klebsiella pneumoniae ATCC 700603 at 2 times MIC incubated for 18 to 24 hrs in presence of 2 times MIC of rifampicin by broth microdilution assay based checkerboard assay; format: functional; details: time 18-24 hrs
Escherichia coli [19] = test: Synergistic antibacterial activity against Escherichia coli ATCC 25922 at 2 times MIC incubated for 18 to 24 hrs in presence of 2 times MIC of polymyxin B by broth microdilution assay based checkerboard assay; format: functional; details: time 18-24 hrs
Klebsiella pneumoniae [20] = test: Synergistic antibacterial activity against Klebsiella pneumoniae ATCC 700603 at 2 times MIC incubated for 18 to 24 hrs in presence of 2 times MIC of polymyxin B by broth microdilution assay based checkerboard assay; format: functional; details: time 18-24 hrs
Escherichia coli [21] = test: Synergistic antibacterial activity against Escherichia coli ATCC 25922 at 2 times MIC incubated for 18 to 24 hrs in presence of 2 times MIC of rifampicin by broth microdilution assay based checkerboard assay; format: functional; details: time 18-24 hrs
Klebsiella pneumoniae [22] = test: Bactericidal activity against Klebsiella pneumoniae 700603 at 2MIC by time-kill assay relative to control; format: functional; details: 2M, TDE = time-dependent effect
Staphylococcus aureus [23] = test: Bactericidal activity against Staphylococcus aureus ATCC 25923 at 2MIC by time-kill assay; format: functional, organism-based; details: time 24.0 hrs, TDE = time-dependent effect
Pseudomonas aeruginosa [24] = test: Antibacterial activity against rifampin-resistant Pseudomonas aeruginosa ATCC 27853 incubated for 18 hrs by CLSI based broth dilution method; format: functional
Pseudomonas aeruginosa [25] = test: Antibacterial activity against gentamicin-resistant Pseudomonas aeruginosa ATCC 27853 incubated for 18 hrs by CLSI based broth dilution method; format: functional
Pseudomonas aeruginosa [26] = test: Antibacterial activity against gentamicin-resistant Pseudomonas aeruginosa ATCC 27853 incubated for 18 hrs in presence of EDTA by CLSI based broth dilution method; format: functional, organism-based

Compound	MIC (Bacteria [1]) [µM]	MHC10 (Erythrocyte)	MIC [2] [µM]	MIC (Acinetobacter baumannii) [µM]	selectivity ratio [3]	FIC (Pseudomonas aeruginosa [4])	MIC (Escherichia coli [5]) [µM]	MIC (Enterococcus faecalis) [µM]	MIC (Bacteria [6]) [µM]	FIC (Pseudomonas aeruginosa [7])	selectivity ratio at 18 h [8]	MIC (Bacteria [9]) [µM]	MIC (Fungi) [µM]	selectivity ratio [10]	MIC (Staphylococcus aureus [11]) [µM]	MIC (Pseudomonas aeruginosa [12]) [µM]	MIC (Bacillus subtilis) [µM]	IC50 [13] [µM]	selectivity ratio [14]	MIC (Klebsiella pneumoniae [15]) [µM]	other results
C[C@@H](O)[C@H](NC(=O)[C@H](CCCCN)NC(=O)[C@H](Cc1c[nH]c2ccccc12)NC(=O)[C@H](CCCNC(=N)N)NC(=O)[C@H](CCCCN)NC(=O)[C@H](Cc1ccccc1)NC(=O)[C@H](Cc1ccccc1)NC(=O)CN)C(=O)N[C@@H](Cc1ccccc1)C(=O)N[C@@H](Cc1ccccc1)C(N)=O (H-GFFKRWKTFF-NH2)	19 (≈ 25.9 µg/mL)	>= 512 uM	4 (≈ 5.45 µg/mL)	64 (≈ 87.2 µg/mL)	26.9	0.25	16 (≈ 21.8 µg/mL)	64 (≈ 87.2 µg/mL)	16 (≈ 21.8 µg/mL)	0.3125	32	22.6 (≈ 30.8 µg/mL)	19 (≈ 25.9 µg/mL)	26.9	16 (≈ 21.8 µg/mL)	16 (≈ 21.8 µg/mL)	16 (≈ 21.8 µg/mL)	48.2	22.6	32 (≈ 43.6 µg/mL)	–
CC(C)C[C@H](NC(=O)[C@H](CC(C)C)NC(=O)[C@@H](NC(=O)[C@H](CCCCN)NC(=O)[C@H](Cc1c[nH]c2ccccc12)NC(=O)[C@H](CCCNC(=N)N)NC(=O)[C@H](CCCCN)NC(=O)[C@H](CC(C)C)NC(=O)[C@H](CC(C)C)NC(=O)CN)[C@@H](C)O)C(N)=O (H-GLLKRWKTLL-NH2)	64 (≈ 78.5 µg/mL)	>= 512 uM	16 (≈ 19.6 µg/mL)	256 (≈ 314 µg/mL)	8	0.3125	64 (≈ 78.5 µg/mL)	256 (≈ 314 µg/mL)	90.5 (≈ 111 µg/mL)	0.5625	5.66	45.3 (≈ 55.6 µg/mL)	64 (≈ 78.5 µg/mL)	8	128 (≈ 157 µg/mL)	64 (≈ 78.5 µg/mL)	128 (≈ 157 µg/mL)	≥ 512	11.3	64 (≈ 78.5 µg/mL)	–
CC(C)C[C@H](NC(=O)CN)C(=O)N[C@@H](Cc1c[nH]c2ccccc12)C(=O)N[C@@H](CCCCN)C(=O)N[C@@H](CCCNC(=N)N)C(=O)N[C@@H](Cc1c[nH]c2ccccc12)C(=O)N[C@@H](CCCCN)C(=O)N[C@@H](CCCCN)C(=O)N[C@@H](Cc1ccccc1)C(=O)N[C@@H](Cc1c[nH]c2ccccc12)C(N)=O (H-GLWKRWKKFW-NH2)	10.4 (≈ 14.9 µg/mL)	83.63 µM	16 (≈ 22.9 µg/mL)	16 (≈ 22.9 µg/mL)	8.06	0.25	8 (≈ 11.5 µg/mL)	32 (≈ 45.9 µg/mL)	13.5 (≈ 19.4 µg/mL)	0.3125	6.19	8 (≈ 11.5 µg/mL)	10.4 (≈ 14.9 µg/mL)	8.06	8 (≈ 11.5 µg/mL)	8 (≈ 11.5 µg/mL)	8 (≈ 11.5 µg/mL)	39	10.4	8 (≈ 11.5 µg/mL)	FIC (Klebsiella pneumoniae [16]): 0.75; FIC (Escherichia coli [17]): 0.5; FIC (Klebsiella pneumoniae [18]): 0.5625; FIC (Escherichia coli [19]): 0.3125; FIC (Klebsiella pneumoniae [20]): 0.5625; FIC (Escherichia coli [21]): 0.5
CC(C)C[C@H](NC(=O)[C@H](Cc1c[nH]c2ccccc12)NC(=O)CN)C(=O)N[C@@H](CCCCN)C(=O)N[C@@H](CCCNC(=N)N)C(=O)N[C@@H](Cc1c[nH]c2ccccc12)C(=O)N[C@@H](CCCCN)C(=O)N[C@H](C(=O)N[C@@H](CC(C)C)C(=O)N[C@@H](Cc1c[nH]c2ccccc12)C(N)=O)[C@@H](C)O (H-GWLKRWKTLW-NH2)	20.8 (≈ 28.5 µg/mL)	320 µM	32 (≈ 43.9 µg/mL)	32 (≈ 43.9 µg/mL)	15.4	0.25	16 (≈ 22 µg/mL)	64 (≈ 87.9 µg/mL)	26.9 (≈ 36.9 µg/mL)	0.3125	11.9	16 (≈ 22 µg/mL)	20.8 (≈ 28.5 µg/mL)	15.4	16 (≈ 22 µg/mL)	16 (≈ 22 µg/mL)	16 (≈ 22 µg/mL)	105	20	16 (≈ 22 µg/mL)	–
CC[C@H](C)[C@H](NC(=O)[C@H](CCCNC(=N)N)NC(=O)[C@H](CCCCN)NC(=O)[C@H](Cc1c[nH]c2ccccc12)NC(=O)[C@H](Cc1c[nH]c2ccccc12)NC(=O)CN)C(=O)N[C@@H](CCCCN)C(=O)N[C@H](C(=O)N[C@@H](Cc1c[nH]c2ccccc12)C(=O)N[C@@H](Cc1c[nH]c2ccccc12)C(N)=O)[C@@H](C)O (H-GWWKRIKTWW-NH2)	7.34 (≈ 10.6 µg/mL)	102.54 µM	8 (≈ 11.6 µg/mL)	8 (≈ 11.6 µg/mL)	14	0.5	8 (≈ 11.6 µg/mL)	16 (≈ 23.1 µg/mL)	8 (≈ 11.6 µg/mL)	0.5	12.8	6.7 (≈ 9.69 µg/mL)	7.34 (≈ 10.6 µg/mL)	14	4 (≈ 5.78 µg/mL)	8 (≈ 11.6 µg/mL)	8 (≈ 11.6 µg/mL)	25.2	15.3	8 (≈ 11.6 µg/mL)	–
N=C(N)NCCC[C@H](NC(=O)[C@H](CCCCN)NC(=O)[C@H](Cc1c[nH]c2ccccc12)NC(=O)[C@H](Cc1c[nH]c2ccccc12)NC(=O)[C@@H](N)CCCCN)C(=O)N[C@@H](Cc1c[nH]c2ccccc12)C(=O)N[C@@H](CCCCN)C(=O)N[C@@H](CCCCN)C(=O)N[C@@H](Cc1c[nH]c2ccccc12)C(=O)N[C@@H](Cc1c[nH]c2ccccc12)C(N)=O (H-KWWKRWKKWW-NH2)	9.51 (≈ 15.4 µg/mL)	77.65 µM	8 (≈ 12.9 µg/mL)	8 (≈ 12.9 µg/mL)	8.16	0.25	16 (≈ 25.9 µg/mL)	16 (≈ 25.9 µg/mL)	8 (≈ 12.9 µg/mL)	0.3125	9.71	11.3 (≈ 18.3 µg/mL)	9.51 (≈ 15.4 µg/mL)	8.16	8 (≈ 12.9 µg/mL)	16 (≈ 25.9 µg/mL)	4 (≈ 6.47 µg/mL)	19.8	6.87	16 (≈ 25.9 µg/mL)	–
CN[C@H](CC(C)C)C(=O)N[C@H]1C(=O)N[C@@H](CC(N)=O)C(=O)N[C@H]2C(=O)N[C@H]3C(=O)N[C@H](C(=O)N[C@H](C(=O)O)c4cc(O)cc(O)c4-c4cc3ccc4O)[C@H](O)c3ccc(c(Cl)c3)Oc3cc2cc(c3O[C@@H]2O[C@H](CO)[C@@H](O)[C@H](O)[C@H]2O[C@H]2C[C@](C)(N)[C@H](O)[C@H](C)O2)Oc2ccc(cc2Cl)[C@H]1O [VANCOMYCIN]	–	–	< 1	< 1	–	–	64 (≈ 92.8 µg/mL)	< 1	–	–	–	–	–	–	< 1	64 (≈ 92.8 µg/mL)	< 1	–	–	≥ 128	Activity (Klebsiella pneumoniae [22]): Tde; Activity (Staphylococcus aureus [23]): Tde
GENTAMICIN	–	–	< 1	< 1	–	–	4	4	–	–	–	–	–	–	< 1	4	< 1	–	–	16	MIC (Pseudomonas aeruginosa [24]): 0.5 µM; MIC (Pseudomonas aeruginosa [25]): 64 µM; MIC (Pseudomonas aeruginosa [26]): 8 µM
